Article PMC8184855, “A small molecule inhibitor of Nox2 and Nox4 improves contractile function after ischemia–reperfusion in the mouse heart” (Scientific Reports, 2021)

Target: T1, Nox4 (Homo sapiens, UniProt Q9NPH5)
T1 sequence (Q9NPH5 1-578): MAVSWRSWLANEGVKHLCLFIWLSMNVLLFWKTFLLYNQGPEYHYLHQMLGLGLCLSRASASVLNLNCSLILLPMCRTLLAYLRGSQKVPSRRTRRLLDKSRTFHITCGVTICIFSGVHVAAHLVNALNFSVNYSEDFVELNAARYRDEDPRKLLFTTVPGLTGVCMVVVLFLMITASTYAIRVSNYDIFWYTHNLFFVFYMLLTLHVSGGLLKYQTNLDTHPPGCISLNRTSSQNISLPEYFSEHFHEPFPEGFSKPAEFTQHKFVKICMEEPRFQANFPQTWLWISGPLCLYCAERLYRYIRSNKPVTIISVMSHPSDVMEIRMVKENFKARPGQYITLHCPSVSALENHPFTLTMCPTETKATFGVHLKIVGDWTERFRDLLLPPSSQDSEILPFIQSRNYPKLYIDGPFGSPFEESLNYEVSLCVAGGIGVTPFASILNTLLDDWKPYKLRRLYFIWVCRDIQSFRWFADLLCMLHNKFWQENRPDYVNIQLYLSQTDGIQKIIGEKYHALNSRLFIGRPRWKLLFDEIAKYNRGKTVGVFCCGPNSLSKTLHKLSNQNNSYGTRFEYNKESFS
Assay: Amplex Red H2O2 assay in CJ HEK […] cells overexpressing Nox4 (found by screen in T-Rex-293 with inducible Nox4); H2O2 counter-screen and DPPH redox control
Type: cell-based

IC50: 1250 nM
SMILES: COc1cccc(N2CCN(Cc3nc(N)nc(Nc4ccc(C)c(C)c4)n3)CC2)c1 [GLX481304]
